The values that follow come from patent publication US4477443A, “Tylosin derivatives, their preparation and pharmaceutical compositions containing them” (Zaidan Hojin Biselbutsu Kagaku Kenkyu Kai (Microbial …, priority 1981, dated 1984).

Common to all, as to experiment: antimicrobial activity (MIC), Table I
What all share (format): cell-based

Test [1] deals with Staph. aureus 193. The note with it: Staphylococcus aureus; Staph. aureus 193; read-out: MIC.
Test [2] concerns Staph. aureus 209 P. The note with it: Staphylococcus aureus; Staph. aureus 209 P; read-out: MIC.
Test [3] relates to Staph. aureus MS 9861. The note with it: Staphylococcus aureus, MS9861; Staph. aureus MS 9861; read-out: MIC.
The subject of test [4] is Sarcina lutea PCI 1001. The note with it: Micrococcus luteus, PCI1001; Sarcina lutea PCI 1001; read-out: MIC.
Test [5] concerns B. subtilis NRRL B-558. The note with it: Bacillus subtilis, NRRLB558; B. subtilis NRRL B-558; read-out: MIC.
The test system of test [6] is Coryn. bovis 1810. The note with it: Corynebacterium bovis; Coryn. bovis 1810; read-out: MIC.
Test [7] concerns E. coli NIHJ. The note with it: Escherichia coli; E. coli NIHJ; read-out: MIC.
Test [8] concerns E. coli K-12. The note with it: Escherichia coli, K12; E. coli K-12; read-out: MIC.
Test [9] deals with E. coli K-12 R-5. The note with it: Escherichia coli, K12R5; E. coli K-12 R-5; read-out: MIC.
Test [10] concerns Kleb. pneumoniae PCI 602. The note with it: Klebsiella pneumoniae, PCI602; Kleb. pneumoniae PCI 602; read-out: MIC.
Test [11] relates to Shigella dysenteriae JS 11910. The note with it: JS11910.
Test [12] concerns Sal. enteritidis 1891. The note with it: Salmonella enterica; Sal. enteritidis 1891; read-out: MIC.

SMILES strings stand for the structures. In brackets after ≈: the same amount, converted by molar mass.

For orientation: MIC means the lowest concentration that inhibits growth of the organism. `CCC1OC(=O)CC(O)C(C)C(OC2OC(C)C(O)C(N(C)C)C2O)C(CC=O)CC(C)C(=O)C=CC(C)=CC1CN(C)Cc1ccccc1` (stereo not drawn) [Example 25, 23-deoxy-23-(N-methylbenzylamino)mycaminosyl tylonolide]: the minimum inhibitory concentration (MIC) in test [1] is 0.2 mg/L (≈ 0.285 µM); in [2] it was under 0.2 mg/L; in test [3] it was 0.2 mg/L (≈ 0.285 µM); in test [4], 0.39 mg/L (≈ 0.556 µM); in test [5], 3.12 mg/L (≈ 4.45 µM); in test [6] it was under 0.2 mg/L. In addition, the minimal inhibitory concentration (MIC) in test [7] worked out at 1.56 mg/L (≈ 2.23 µM); in test [8], 3.12 mg/L (≈ 4.45 µM); in test [9], 6.25 mg/L (≈ 8.92 µM); in test [10], 0.39 mg/L (≈ 0.556 µM); in test [11], 3.12 mg/L (≈ 4.45 µM); in [12], 1.56 mg/L (≈ 2.23 µM).
For the molecule `CCC1OC(=O)CC(O)C(C)C(OC2OC(C)CC(N(C)C)C2O)C(CC=O)CC(C)C(=O)C=CC(C)=CC1CN1CCN(C)CC1` (stereo not drawn) [Example 32, 23,4'-dideoxy-23-(4-methylpiperazin-1-yl)mycaminosyl tylonolide], the MIC in test [1] was 1.56 mg/L (≈ 2.35 µM); in [2] it was 0.78 mg/L (≈ 1.17 µM); in [3] it was 6.25 mg/L (≈ 9.41 µM); in test [4], under 0.2 mg/L; in test [5], 1.56 mg/L (≈ 2.35 µM); in test [6] it was 6.25 mg/L (≈ 9.41 µM). The minimum inhibitory concentration (MIC) in test [7] was found to be 3.12 mg/L (≈ 4.7 µM); in test [8], 25 mg/L (≈ 37.7 µM); in test [9] it was 6.25 mg/L (≈ 9.41 µM); in test [10] it was 25 mg/L (≈ 37.7 µM); in test [11] it was 0.2 mg/L (≈ 0.301 µM); in test [12], 6.25 mg/L (≈ 9.41 µM).
`CCC1OC(=O)CC(O)C(C)C(OC2OC(C)CC(N(C)C)C2O)C(CC=O)CC(C)C(=O)C=CC(C)=CC1CN1CCC(=O)CC1` (stereo not drawn) [Example 28, 23,4'-dideoxy-23-(4-pipridone)mycaminosyl tylonolide]: the MIC in [1] is under 0.2 mg/L; in test [2], under 0.2 mg/L; in [3], 0.39 mg/L (≈ 0.588 µM); in test [4], under 0.2 mg/L; in test [5], under 0.2 mg/L; in test [6], 0.39 mg/L (≈ 0.588 µM). Moreover, the MIC in [7] was determined as 3.12 mg/L (≈ 4.71 µM); in test [8] it was 6.25 mg/L (≈ 9.43 µM); in [9] it was 6.25 mg/L (≈ 9.43 µM); in [10], 1.56 mg/L (≈ 2.35 µM); in test [11], 0.78 mg/L (≈ 1.18 µM); in test [12], 6.25 mg/L (≈ 9.43 µM).
On to `CCC1OC(=O)CC(O)C(C)C(OC2OC(C)CC(N(C)C)C2O)C(CC=O)CC(C)C(=O)C=CC(C)=CC1CN(CC)C(=O)OC` (stereo not drawn) [Example 83, 23,4'-Dideoxy-23-N-ethylmethoxycarbonylaminomycaminosyl tylonolide], for which the minimal inhibitory concentration (MIC) is under 0.2 mg/L in test [1]; under 0.2 mg/L in test [2]; 0.39 mg/L (≈ 0.585 µM) in test [3]; under 0.2 mg/L in [4]; under 0.2 mg/L in test [5]; under 0.2 mg/L in test [6]. In addition, the minimal inhibitory concentration (MIC) in test [7] was 6.25 mg/L (≈ 9.37 µM); in test [8], 12.5 mg/L (≈ 18.7 µM); in test [9] it was 12.5 mg/L (≈ 18.7 µM); in [10], 12.5 mg/L (≈ 18.7 µM); in test [11] it was 1.56 mg/L (≈ 2.34 µM); in test [12], 6.25 mg/L (≈ 9.37 µM).
As to `CCC1OC(=O)CC(O)C(C)C(OC2OC(C)CC(N(C)C)C2O)C(CC=O)CC(C)C(=O)C=CC(C)=CC1CN1CCOCC1` (stereo not drawn) [Example 29, 23,4'-dideoxy-23-morpholinomycaminosyl tylonolide], the MIC in test [1] is 0.39 mg/L (≈ 0.599 µM); in test [2] it was 0.39 mg/L (≈ 0.599 µM); in test [3], 0.78 mg/L (≈ 1.2 µM); in test [4] it was under 0.2 mg/L; in test [5] it was 0.39 mg/L (≈ 0.599 µM); in test [6], under 0.2 mg/L. Also, the MIC in test [7] came to 3.12 mg/L (≈ 4.79 µM); in test [8], 25 mg/L (≈ 38.4 µM); in test [9] it was 12.5 mg/L (≈ 19.2 µM); in test [10], 3.12 mg/L (≈ 4.79 µM); in [11] it was 0.39 mg/L (≈ 0.599 µM); in [12], 12.5 mg/L (≈ 19.2 µM).
In the case of `CCC1OC(=O)CC(O)C(C)C(OC2OC(C)C(O)C(N(C)C)C2O)C(CC=O)CC(C)C(=O)C=CC(C)=CC1CN(C)C1CCCCC1` (stereo not drawn) [Example 27, 23-deoxy-23-(N-methylcyclohexylamino)mycaminosyl tylonolide], the minimal inhibitory concentration (MIC) in test [1] is 0.78 mg/L (≈ 1.13 µM); in test [2] it was under 0.2 mg/L; in [3] it was 3.12 mg/L (≈ 4.5 µM); in test [4], under 0.2 mg/L; in [5] it was under 0.2 mg/L; in [6], under 0.2 mg/L. The minimum inhibitory concentration (MIC) is 0.78 mg/L (≈ 1.13 µM) in test [7]; 3.12 mg/L (≈ 4.5 µM) in test [8]; 3.12 mg/L (≈ 4.5 µM) in [9]; under 0.2 mg/L in [10]; under 0.2 mg/L in test [11]; under 0.2 mg/L in test [12].
